Marks after values point to notes of the source that are not given here. Values belong to the compound of their own block, whether it stands above or below them.
Columns and labels:
Format in all cases: cell-based
GPR174 [1] = biological target: T1, GPR174 (Homo sapiens, UniProt Q9BXC1); assay: Cellular redistribution assay (CRA) for GPR174
Text: One method for identifying compounds capable of modulating a receptor is using a cellular redistribution assay (“CRA”). Exemplary CRA methods are found in U.S. Pat. No. 7,309,576 issued to O'Dowd et al. and in O'Dowd et al., J. Biomol. Screen. 12:175-85,2007. […] Incorporation of the NLS alters the cellular localization of the GPCR, such that the majority of the NLS-modified receptor is present in the cell interior. An NLS-modified GPCR, when interacting with a functionally active compound, is mostly localized on the cell surface. Thus, it becomes possible to identify receptor modulators without knowledge of the endogenous ligand or a surrogate ligand.
The inventors have identified a number of compounds that inhibit GPR174 using a CRA assay similar to that described in U.S. Pat. No. 7,309,576 and in O'Dowd et al., J. Biomol. Screen. 12:175-85, 2007. These compounds are described in detail below.
(§1) The inventors used a CRA similar to that described in U.S. Pat. No. 7,309,576 and O'Dowd et al., J. Biomol. Screen. 12:175-85, 2007 to identify compounds that are capable of interacting with GPR174 using a library of approximately 370,000 chemical entities. Briefly described, the CRA assay described in U.S. Pat. No. 7,309,576 involves artificially inserting a NLS into the dopamine D1 receptor (DRD1), which allows the receptor to traffic from the cell membrane to the cell interior, and that the binding of antagonists to the receptor retained the receptor at the cell surface, while removal of the ligand allowed the receptor to continue to internalize from the cell surface. Both antagonists and agonists that selectively bound the receptor retained the receptor on the plasma membrane. GPR174 constructs were generated for use in a CRA-based compound screening assay. From this screen, the inventors initially identified compounds of formula I-VI, as described herein and included in Table 1.
Target sequence in this assay (Q9BXC1 1-292 limits assumed): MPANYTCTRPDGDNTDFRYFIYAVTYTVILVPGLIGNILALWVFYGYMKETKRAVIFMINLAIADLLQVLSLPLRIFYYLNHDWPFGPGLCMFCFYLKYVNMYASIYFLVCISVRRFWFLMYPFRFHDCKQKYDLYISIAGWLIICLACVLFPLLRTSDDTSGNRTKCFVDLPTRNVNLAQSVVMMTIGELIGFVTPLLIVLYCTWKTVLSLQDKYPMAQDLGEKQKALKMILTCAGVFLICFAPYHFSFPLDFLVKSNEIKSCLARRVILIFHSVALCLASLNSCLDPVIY

GPR174 [2] = biological target: T1, GPR174; assay: CRE-Luc reporter Gs signaling assay with GPR174; parameters: host or cells: HEK293 or CHO cell lines (ATCC); settings: pCRE-Luc reporter
Target sequence in this assay (Q9BXC1 whole entry): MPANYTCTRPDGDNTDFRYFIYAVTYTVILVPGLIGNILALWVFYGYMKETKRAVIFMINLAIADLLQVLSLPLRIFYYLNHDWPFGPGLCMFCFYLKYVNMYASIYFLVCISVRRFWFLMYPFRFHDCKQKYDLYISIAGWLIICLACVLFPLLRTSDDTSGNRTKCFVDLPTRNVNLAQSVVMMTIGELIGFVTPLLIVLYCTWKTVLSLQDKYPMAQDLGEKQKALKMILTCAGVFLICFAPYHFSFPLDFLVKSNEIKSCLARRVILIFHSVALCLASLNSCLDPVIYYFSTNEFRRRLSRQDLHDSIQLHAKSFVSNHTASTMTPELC

CHRM1 = assay: CRA against CHRM1
Text: as §1
The inventors also sought to validate that the compounds identified using the CRA are modulatory compounds. To this end, the above-described CRA was used to screen a library for compounds that interact with three control non-orphan receptors, and the results of this screen were compared to the results of screening the same library for compound that were identified using a Fluorometric Imaging Plate Reader (FLIPR) assay, a conventional technique commonly used to identify compounds interacting with non-orphan GPCRs signaling through Ca^++. Three non-orphan GPCRs—Muscarinic acetylcholine receptor M1 (CHRM1), Adrenergic receptor alpha 1a (ADRA1a), and Neuropeptide S receptor (NPSR)—were screened against a 10,000-compound GPCR-focused library. Thirty interacting compound “hits” were identified using the CRA, and eighty-one hits were identified using the FLIPR for the CHRM1 receptor; 9 CRA hits and 29 FLIPR hits for the NPS receptor were identified; and 110 CRA hits and 110 FLIPR hits for ADRA1a.
In addition, the CRA can also provide the relative potencies of compounds against the target receptor.

human PBMCs = assay: Th1 cytokines in supernatants of stimulated human PBMC, GPR174 inhibitor with adenosine pathway inhibitors (Examples 15, 18-22); settings: donor 7
Procedure: Human PBMCs, obtained from a human volunteer donor, were dispensed at density of 1×10^6 cells/well in a 96-well flat-bottom plate and were stimulated in triplicate with 1 μg/mL anti-CD3 antibody (UCHT1) and 0.1 μg/mL anti-CD28 antibody (CD28.2) in the presence of:
Supernatants from these cells were collected at 24 hours post-stimulation and the levels of IFN-γ were determined by ELISA assay. Statistical analysis was carried out using one-way ANOVA with Tukey's post-hoc multiple comparison's correction.
Human PBMCs, obtained from a human volunteer donor (donor 1), were dispensed in X-vivo15 media (Lonza) supplemented with Glutamax, penicillin and streptomycin, at density of 1×10^6 cells/well in a 96-well flat-bottom plate and were stimulated with 1 μg/mL anti-CD3 antibody (UCHT1) and 0.1 μg/mL anti-CD28 antibody (CD28.2) in the presence of:
Supernatants from these cells were collected at 24 hours post-stimulation and the levels of IFN-γ, IL-2 and TNF were determined by ELISA assays.
Human PBMCs, obtained from two individual human volunteer donors (donor 2 and donor 3), were dispensed at density of 1×10^6 cells/well in a 96-well flat-bottom plate and were stimulated with 1 μg/mL anti-CD3 antibody (UCHT1) and 0.1 μg/mL anti-CD28 antibody (CD28.2) in the presence of:
Human PBMCs, obtained from twelve individual human volunteer donors were dispensed at density of 1×10^6 cells/well in a 96-well flat-bottom plate and were stimulated in triplicate with 1 μg/mL anti-CD3 antibody (UCHT1) and 0.1 μg/mL anti-CD28 antibody (CD28.2) in the presence of:
A total of 44 experiments using PBMC from 12 healthy donors were tested (9 donors for GM-CSF), with each donor tested in 1 to 8 separate experiments, depending on the donor (1 to 4 experiments each for GM-CSF). […] Cytokines were detected in supernatants with the Legendplex (Biolegend) or the MSB (MesoScale) platforms. […] One-way ANOVA with Tukey's post-hoc multiple comparisons correction was performed to identify significant differences (FC, mean fold change; ****, p<0.0001, ***, p<0.001; **, p<0.01; *, p<0.05, ns, not significant).
Human PBMC (1×10^6 cells/well in a 96-well flat-bottom plate) obtained from donor 3 and donor 6 were stimulated with 1 μg/mL anti-CD3 antibody (UCHT1) and 0.1 μg/mL anti-CD28 antibody (CD28.2) in the presence of:
Supernatants from these cells were collected at 24 hours post-stimulation and the levels of IFN-γ, IL-2, and TNF were determined with the MSD platform (MesoScale Discovery).
Human PBMC (1×10^6 cells/well in a 96-well flat-bottom plate) obtained from donor 7 were stimulated with 1 μg/mL […] (UCHT1) and 0.1 μg/mL anti-CD28 antibody (CD28.2) in the presence of:
Supernatants from these cells were collected at 24 hours post-stimulation and the levels of IFN-γ, IL-2, TNF and GM-CSF were determined with the MSD platform (MesoScale Discovery).
Supernatants from these cells were collected at 24 hours post-stimulation and the levels of IFN-γ, IL-2 and TNF were determined with the MSD platform (MesoScale Discovery).

human PBMC = assay: IL-2 in supernatants of human PBMC stimulated with anti-CD3 and anti-CD28, ELISA; settings: human PBMC donor 8, 24 hours post-stimulation; compound 10 1 μM, ZM-241385 0.1 μM, APCP 10 μM; FIG. 71
Procedure: Human PBMCs, obtained from a human volunteer donor (donor 8), were dispensed in X-vivo15 media (Lonza) supplemented with Glutamax, penicillin and streptomycin, at density of 1×10^6 cells/well in a 96-well flat-bottom plate and were cultured in quadruplicate for 3 hours in the presence of:
GPR174 inhibitory compound 10 (1 μM);
CD73 inhibitory compound, adenosine 5′-(a,p-methylene)diphosphate sodium salt (APCP, Tocris, 10 μM);
Combinations of the above agents;
After which 1 μg/mL anti-CD3 antibody (UCHT1) and 0.1 μg/mL anti-CD28 antibody (CD28.2) were added to activate T cells. Supernatants from these cells were collected at 24 hours post-stimulation and the levels of IL-2 were determined by ELISA.

[3] = high and low concentrations, ZM 0.1 μM
[4] = no ZM, 0.3 μM (compound 20: 3 μM)
[5] = no ZM, 1 μM (compound 20: 10 μM)
[6] = with ZM-241385 0.1 μM, 0.3 μM (compound 20: 3 μM)
[7] = with ZM-241385 0.1 μM, 1 μM (compound 20: 10 μM), label ZM = ZM alone

dose-response curve against GPR174 in the CRA (FIG. 5A) (GPR174 [1]): show a dose-response curve
Human GPR174 CRE Activity: nature of the compound (IA, antagonist, NM) (GPR174 [2]): Antagonist or allostetic modulator
Compound: CC(=O)c1ccc(N2CCN(C(=O)c3ccc(F)cc3)CC2)c(F)c1 [compound 3]
activity against CHRM1 in the CRA (FIG. 5B) (CHRM1): do not show any activity

Compound: Cc1ccccc1Nc1nnc(-c2ccc(C)c(S(N)(=O)=O)c2)c2ccccc12 [compound 20]
dose-response curve against GPR174 in the CRA (FIG. 5A) (GPR174 [1]): show a dose-response curve
Human GPR174 CRE Activity: nature of the compound (IA, antagonist, NM) (GPR174 [2]): Antagonist or allosteric modulator
activity against CHRM1 in the CRA (FIG. 5B) (CHRM1): do not show any activity
synergy with ZM on GM-CSF (greater than the sum of the increases with each inhibitor alone) (human PBMCs; [3]): synergized with ZM
synergy with ZM on IFN-γ (greater than the sum of the increases with each inhibitor alone) (human PBMCs; [3]): synergized with ZM
synergy with ZM on IL-2 (greater than the sum of the increases with each inhibitor alone) (human PBMCs; [3]): synergized with ZM
synergy with ZM on TNF (greater than the sum of the increases with each inhibitor alone) (human PBMCs; [3]): synergized with ZM
GM-CSF, ratio relative to vehicle control (human PBMCs; [4]): 2.7*
IFN-γ, ratio relative to vehicle control (human PBMCs; [4]): 1.2
IL-2, ratio relative to vehicle control (human PBMCs; [4]): 1.3
TNF, ratio relative to vehicle control (human PBMCs; [4]): 1.4*
GM-CSF, ratio relative to vehicle control (human PBMCs; [5]): 2.3*
IFN-γ, ratio relative to vehicle control (human PBMCs; [5]): 1.5*
IL-2, ratio relative to vehicle control (human PBMCs; [5]): 1.4*
TNF, ratio relative to vehicle control (human PBMCs; [5]): 1.5*
GM-CSF, ratio relative to vehicle control (human PBMCs; [6]): 4.6*
IFN-γ, ratio relative to vehicle control (human PBMCs; [6]): 1.8*
IL-2, ratio relative to vehicle control (human PBMCs; [6]): 1.6*
TNF, ratio relative to vehicle control (human PBMCs; [6]): 1.9*
GM-CSF, ratio relative to vehicle control (human PBMCs; [7]): 4.4*
IFN-γ, ratio relative to vehicle control (human PBMCs; [7]): 2.1*
IL-2, ratio relative to vehicle control (human PBMCs; [7]): 2.1*
TNF, ratio relative to vehicle control (human PBMCs; [7]): 2.4*

Compound: adenosine 5′-(a,p-methylene)diphosphate sodium salt [APCP]
increase of IL-2 levels (human PBMC): 1.5 fold

From US20200345725A1, “Methods and Compositions for Treating Cancer” (Omeros Corporation, priority 2019, published 2020)
